Read-outs that look alike come from different tables or passages of the source.
What was measured:
[1] = Solubility of amitraz in various solvents; format: physicochemical
Experimental: Solutions of amitraz in certain solvents at high concentration result in the appearance of crystals over time. […] The solubility of amitraz in butyl acetate is lower then in anisole, MIK and ethyl benzoate. […] Additionally, when amitraz (25%) in butyl acetate formulations were stored at 50° C. in a chamber, they evaporated slightly. […] Again, lowering concentration to 20% and addition of co-solvents with higher solubility of amitraz avoided crystallization of amitraz. Unexpectedly, this addition of co-solvents caused the effects described below in Example 9.

[2] = tested on: adult brown dog ticks (Rhipicephalus sanguineus); assay: Tick DMSO contact assay, Compound 1 with amitraz, Example 15; format: in vivo; details: for mortality at 6.25 ppm / mortality at 12.5 ppm / mortality at 25 ppm: Rhipicephalus sanguineus; for Synergistic Ratio (EC50): EC50 alone divided by EC50 with Amitraz (12.5 ppm); for Synergistic Ratio (EC90): EC90 alone divided by EC90 with Amitraz (12.5 ppm)
Experimental: Dosages were serially diluted using this same formulation.
Scintillation vials were treated with commercial and experimental compounds using the same procedure described in Example 12 above. The treated vials were used to determine the contact toxicity of compounds against adult brown dog ticks (Rhipicephalus sanguineus). The ticks were supplied by Ecto Services Inc. Henderson, N.C.
Unfed adult ticks were released into a metal pan and 10 living ticks were aspirated into each vial. […] Two replicates were tested for each treatment and the results were averaged. Ticks were stimulated by gently exhaling in the vials. Within the same time period, the addition of amitraz to an equal dosage of compound 1 increased mean mortality.

[3] = tested on: Ctenocephalides felis fleas; assay: Study C: flea efficacy of Compound 1 and fipronil alone and with amitraz in dogs; format: in vivo
Experimental: The effectiveness of Compound 1 alone, fipronil alone, Compound 1 in combination with amitraz, or fipronil in combination with amitraz, when administered once as topical solutions to dogs against induced infestations of Rhipicephalus sanguineus and Ctenocephalides felis were determined in a third clinical study. Thirty-six beagles (18 males and 18 females) were selected for the study. Six replicates of 6 animals each were formed. Treatment Group 1 dogs were treated with a placebo. Treatment Groups 2, 3, 4, 5 and 6 received their respective treatments as a topical spot-on application once on Day 0. Each formulation included diethyleneglycol monoethyl ether (transcutol) as carrier. The Treatment Groups were: Treatment Group 2: fipronil at 0.1 mL/kg body weight (10 mg/kg); Treatment Group 3: Compound 1 at 0.1 mL/kg (10 mg/kg) body weight; Treatment Group 4: Compound 1 at 0.2 mL/kg (20 mg/kg) body weight; Treatment Group 5: Compound 1 at 0.1 mL/kg (10 mg/kg) body weight plus amitraz at 0.04 mL/kg (8 mg/kg) body weight; Treatment Group 6: fipronil at 0.1 mL/kg (10 mg/kg) body weight plus amitraz at 0.04 mL/kg (8 mg/kg) body weight. Treatment was applied by parting the hair and applying the formulation(s) directly onto the skin on one spot at the midline of the neck, except for Groups 4, 5 and 6 which were applied in approximately equal volumes on two spots, one spot between the base of the skull and the shoulder blades and the other at the front of the shoulder blades.
All dogs were infested with approximately 50 Rhipicephalus sanguineus ticks on Days −1, 7, 14, 21, 28, 35, 42, 49 and 56. Dogs were also infested with approximately 100 Ctenocephalides felis fleas on Days −1, 8, 15, 22, 29, 36, 43, 50 and 57. Ectoparasites were removed and counted on Day 2, approximately 48 hours after treatment and on Days 9, 16, 23, 30, 37, 44, 51 and 58 approximately 24 hours after flea infestation and 48 hours after tick infestation. Tables 8 and 9 below show the % efficacy of formulations comprising fipronil at 0.1 ml/kg of body weight, Compound 1 at […], and fipronil and Compound 1 both at […] in combination with amitraz at 0.04 ml/kg of body weight compared to control group without active compounds. The percent reduction in flea counts of the treated groups with respect to the Control group over the study is shown in FIG. 14.

[4] = 14C radiolabeled drug, spot-on administration, beagle dogs; cited from earlier work
[5] = 6 h, read-out: 6 hour % Mortality Rep 1
[6] = 6 h, read-out: 6 hour % Mortality Rep 2
[7] = 6 h, read-out: 6 hour Avg. % Mortality
[8] = 24 h, read-out: 24 hour % Mortality Rep 1
[9] = 24 h, read-out: 24 hour % Mortality Rep 2
[10] = 24 h, read-out: 24 hour Avg. % Mortality
[11] = 48 h, read-out: 48 hour % Mortality Rep 1
[12] = 48 h, read-out: 48 hour % Mortality Rep 2
[13] = 48 h, read-out: 48 hour Avg. % Mortality

## Cc1ccc(/N=C/N(C)/C=N/c2ccc(C)cc2C)c(C)c1 [Amitraz, amitraz]
[1]; in Acetone
  Solubility of amitraz (at room temperature, %): 37.87%
[1]; in Anisole (methoxybenzene)
  Solubility of amitraz (at room temperature, %): 45.54%
[1]; in Benzyl acetate
  Solubility of amitraz (at room temperature, %): 21.85%
[1]; in Benzyl benzoate
  Solubility of amitraz (at room temperature, %): 33.30%
[1]; in Butyl acetate
  Solubility of amitraz (at room temperature, %): 27.10%
[1]; in Ethyl benzoate
  Solubility of amitraz (at room temperature, %): 39.43%
[1]; in Methyl isobutyl ketone
  Solubility of amitraz (at room temperature, %): 36.72%
[2]; [5]
  mortality at 6.25 ppm: 0%
  mortality at 12.5 ppm: 0%
  mortality at 25 ppm: 0%
[2]; [6]
  mortality at 6.25 ppm: 0%
  mortality at 12.5 ppm: 0%
  mortality at 25 ppm: 0%
[2]; [7]
  mortality at 6.25 ppm: 0%
  mortality at 12.5 ppm: 0%
  mortality at 25 ppm: 0%
[2]; [8]
  mortality at 6.25 ppm: 0%
  mortality at 12.5 ppm: 0%
  mortality at 25 ppm: 0%
[2]; [9]
  mortality at 6.25 ppm: 0%
  mortality at 12.5 ppm: 0%
  mortality at 25 ppm: 0%
[2]; [10]
  mortality at 6.25 ppm: 0%
  mortality at 12.5 ppm: 0%
  mortality at 25 ppm: 0%
[2]; [11]
  mortality at 6.25 ppm: 0%
  mortality at 12.5 ppm: 0%
  mortality at 25 ppm: 10%
[2]; [12]
  mortality at 6.25 ppm: 0%
  mortality at 12.5 ppm: 0%
  mortality at 25 ppm: 10%
[2]; [13]
  mortality at 6.25 ppm: 0%
  mortality at 12.5 ppm: 0%
  mortality at 25 ppm: 10%

## Cc1c([S+]([O-])C(F)(Cl)Cl)c(C#N)nn1-c1c(F)cc(C(F)(F)F)cc1Cl (centres unmarked) [Compound 1, 3-cyano-1-(2-chloro-6-fluoro-4-trifluoromethylphenyl)-4-dichlorofluoromethylsulfinyl-5-methyl-1H-pyrazole]
[3]; Day 2, 10 mg/kg
  % Efficacy against fleas: 100%
[3]; Day 2, 20 mg/kg
  % Efficacy against fleas: 100%
[3]; Day 9, 10 mg/kg
  % Efficacy against fleas: 100%
[3]; Day 9, 20 mg/kg
  % Efficacy against fleas: 100%
[3]; Day 16, 10 mg/kg
  % Efficacy against fleas: 100%
[3]; Day 16, 20 mg/kg
  % Efficacy against fleas: 100%
[3]; Day 23, 10 mg/kg
  % Efficacy against fleas: 100%
[3]; Day 23, 20 mg/kg
  % Efficacy against fleas: 100%
[3]; Day 30, 10 mg/kg
  % Efficacy against fleas: 99.8%
[3]; Day 30, 20 mg/kg
  % Efficacy against fleas: 100%
[3]; Day 37, 10 mg/kg
  % Efficacy against fleas: 99.4%
[3]; Day 37, 20 mg/kg
  % Efficacy against fleas: 100%
[3]; Day 44, 10 mg/kg
  % Efficacy against fleas: 98.6%
[3]; Day 44, 20 mg/kg
  % Efficacy against fleas: 100%
[3]; Day 51, 10 mg/kg
  % Efficacy against fleas: 98.5%
[3]; Day 51, 20 mg/kg
  % Efficacy against fleas: 99.8%
[3]; Day 58, 10 mg/kg
  % Efficacy against fleas: 94.6%
[3]; Day 58, 20 mg/kg
  % Efficacy against fleas: 100%
[2]; 6 hour Eval
  Synergistic Ratio (EC50): 11
  Synergistic Ratio (EC90): >5.72
[2]; 24 hour Eval
  Synergistic Ratio (EC50): 135.3
  Synergistic Ratio (EC90): 111.4
[2]; 48 hour Eval
  Synergistic Ratio (EC50): 133.1
  Synergistic Ratio (EC90): 50.3

## N#Cc1nn(-c2c(Cl)cc(C(F)(F)F)cc2Cl)c(N)c1[S+]([O-])C(F)(F)F (centres unmarked) [fipronil, 5-amino-3-cyano-1-(2,6-dichloro-4-trifluoromethylphenyl)-4-trifluoromethylsulfinylpyrazole]
[3]; Day 2, 10 mg/kg
  % Efficacy against fleas: 100%
[3]; Day 9, 10 mg/kg
  % Efficacy against fleas: 100%
[3]; Day 16, 10 mg/kg
  % Efficacy against fleas: 100%
[3]; Day 23, 10 mg/kg
  % Efficacy against fleas: 100%
[3]; Day 30, 10 mg/kg
  % Efficacy against fleas: 100%
[3]; Day 37, 10 mg/kg
  % Efficacy against fleas: 100%
[3]; Day 44, 10 mg/kg
  % Efficacy against fleas: 99.8%
[3]; Day 51, 10 mg/kg
  % Efficacy against fleas: 100%
[3]; Day 58, 10 mg/kg
  % Efficacy against fleas: 99.1%
[4]
  time detected in the whole skin after treatment: up to 56 days

Source: patent publication US8450357B2, “Compositions comprising an aryl pyrazole and/or a formamidine, methods and uses thereof” (Merial Limited, priority 2008, dated 2013)
